Measured values published in PubChem BioAssay AID2060350 (Molecular Pharmacology Branch, DTP, NCI, 2025).
Several values for one entry are separate records, joined by “and”; a condition that tells them apart may be missing. Equal values may be shown once.

System: PDC 521955-158-R6-J3 spheroids, viability
Experiment: Anticancer human tumor 521955-158-R6-J3-PDC patient-derived pancreatic carcinoma cell line growth inhibition [TAK]
Conditions: spheroids with HUVEC and MSC; for viability, T/C: stronger effect = lower value
Excerpt: Combinatorial screen of targeted agents with TAK-243 and ipatasertib in multi-cell type tumor spheroids
A high-throughput screen of multi-cell type tumor spheroids was designed to identify active combinations of targeted small molecules and TAK-243 or ipatasertib. Complex spheroids include a stromal component modeled by human endothelial cells (HUVEC) and fibroblasts modeled by human mesenchymal stem cells (MSCs). The concentration ranges selected for each drug and investigational agent were based upon clinically achievable concentrations if the clinical Cmax of the agent was known.
Compounds. The drugs and investigational agents: TAK-243 (785004), ipatasertib (767898), everolimus (733504), selumetinib (741078), bortezomib (756655), trametinib (758246), ixazomib (758254), vemurafenib (761431), dabrafenib (764134), sapanisertib (764658), alpelisib (765974), and copanlisib (816437), were obtained from the National Cancer Institute (NCI) Developmental Therapeutics Program Chemical Repository. The FDA-approved anticancer drug set is available from the NCI Developmental Therapeutics Program. […] The stock solutions were prepared in dimethyl sulfoxide (DMSO, Sigma-Aldrich, St. Louis, MO, cat. D2650) at 800-fold the tested concentration and stored at -70 degrees C prior to their use. All drugs and investigational agents were tested over a range starting from a high concentration at or near the clinical Cmax and decreasing in half-log increments. If the clinical Cmax for an agent had not been determined, the highest concentration tested was 10 microM.
NCI60 Cell Culture. NCI60 cell lines were obtained from the NCI Developmental Therapeutics Program Tumor Repository. For each lot of cells, the Repository performed Applied Biosystems AmpFLSTR Identifiler testing with PCR amplification to confirm consistency with the published Identifier STR profile for each cell line. Cells were kept in continuous culture for no more than 20 passages. The optimal seeding densities for each of the cell lines at each time point assessed were determined prior to performing the concentration response studies. Briefly, the NCI60 human tumor lines were grown as monolayers in RPMI 1640 medium supplemented with 10% FBS and 2 mmol/L L-glutamine.
An additional 2 lines were from the NCI60 cell line panel including melanomas, MALME-3M and SK-MEL-2. Pooled donor human umbilical vein endothelial cells (HUVEC, Lonza, cat. CC-2519) and human mesenchymal stem cells (hMSC, Lonza, cat. PT-2501) were purchased from Lonza (Walkersville, MD).
PDMR cell lines were grown in complete medium (DC medium): Dulbecco's modified Eagle's medium (DMEM)/F12 supplemented with 5% fetal bovine serum (FBS), 2 mM L-glutamine, 100 U/mL penicillin and 100 µg/ml streptomycin, 0.4 µg/ml hydrocortisone, 10 ng/ml epidermal growth factor (EGF) recombinant human protein, 24 µg/mL adenine, and 0.1 mg/mL primocin. During culture from frozen stock vials, PDMR cells were cultured in the same medium containing 10 µM Y-27632 (see Table 3). The PDCs were cultured in complete DMEM/F12 media without 10 microM Y-27632 dihydrochloride for at least two passages prior to the screen. The pooled donor HUVEC and hMSC were cultured in endothelial cell growth medium 2 (PromoCell, Heidelberg, Germany, cat. C-22011) and mesenchymal stem cell growth medium 2 (PromoCell, cat. C-28009), respectively. For all experiments, HUVEC and hMSC were used at passages </=5.
For the pre-screen, cell seeding densities were determined from a titration spanning the range from 5,000 to 313 cells per well. The mct-spheroids including 60% malignant cells, 25% HUVEC and 15% MSC dispensed as a mixture into U-bottom Ultra-Low Attachment 384-well plates (Corning, NY)
High-throughput Drug Combination Screening.
Prior to their inoculation into 384-well plates, malignant cells, HUVEC, and hMSC were removed from T flasks using TrypLE express (Thermo Fisher Scientific, cat. 12605036) and harvested by centrifugation for 5 min at 233 x g. […]

[1] = curve of first compound, second compound 0.3 µM
[2] = curve of first compound, second compound 0.949 µM
[3] = curve of first compound, second compound 3 µM
[4] = curve of first compound, second compound 9.49 µM
[5] = curve of first compound, second compound 30 µM
[6] = second compound 0.3 µM, first compound 0.0316 µM
[7] = second compound 0.3 µM, first compound 0.1 µM
[8] = second compound 0.949 µM, first compound 0.0316 µM
[9] = second compound 0.949 µM, first compound 0.1 µM
[10] = second compound 3 µM, first compound 0.0316 µM
[11] = second compound 3 µM, first compound 0.1 µM
[12] = second compound 9.49 µM, first compound 0.0316 µM
[13] = second compound 9.49 µM, first compound 0.1 µM
[14] = second compound 30 µM, first compound 0.0316 µM
[15] = second compound 30 µM, first compound 0.1 µM
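Further: spheroids exposed to drugs for 7 days before readout.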
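Wherever viability, T/C is given: 100% = DMSO vehicle control viability.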

With `CC(C)NCC(C(=O)N1CCN(c2ncnc3c2C(C)CC3O)CC1)c1ccc(Cl)cc1` (stereo not given) the viability, T/C (compound 0.3 µM) was 93.8% [middle of 10 runs], the IC50 (compound alone, run of 02/20/2020) was over 30 µM and the IC50 (compound alone, run of 03/19/2020) was over 30 µM.

With `CC(C)(C)c1nc(-c2cccc(NS(=O)(=O)c3c(F)cccc3F)c2F)c(-c2ccnc(N)n2)s1` the viability, T/C (compound 0.0316 µM) was 111% and 97.3%, the viability, T/C (compound 0.1 µM) was 121% and 111% and the viability, T/C (compound 0.316 µM) was 135% and 114%. For the same compound, the viability, T/C (compound 1 µM) was 116% and 111%, the viability, T/C (compound 3.16 µM) was 108% and 98.3% and the viability, T/C (compound 10 µM) was 139% and 118%. The IC50 (curve of compound) was over 10 µM.

In the case of `CC(C)(C)c1nc(-c2cccc(NS(=O)(=O)c3c(F)cccc3F)c2F)c(-c2ccnc(N)n2)s1` + CC(C)NCC(C(=O)N1CCN(c2ncnc3c2C(C)CC3O)CC1)c1ccc(Cl)cc1, the IC50 [1] is reported as over 10 µM, the IC50 [2] is reported as over 10 µM and the IC50 [3] is reported as over 10 µM. For the same compound, the IC50 [4] was over 10 µM, the IC50 [5] was over 10 µM and the viability, T/C [6] was 104%. The viability, T/C [7] was 128%, the viability, T/C (second compound 0.3 µM, first compound 0.316 µM) was 136% and the viability, T/C (second compound 0.3 µM, first compound 1 µM) was 129%. The viability, T/C (second compound 0.3 µM, first compound 3.16 µM) was 107%, the viability, T/C (second compound 0.3 µM, first compound 10 µM) was 107% and the viability, T/C [8] was 98.7%. It also gave a viability, T/C [9] of 123%, a viability, T/C (second compound 0.949 µM, first compound 0.316 µM) of 136% and a viability, T/C (second compound 0.949 µM, first compound 1 µM) of 129%. For the same compound, the viability, T/C (second compound 0.949 µM, first compound 3.16 µM) was 105%, the viability, T/C (second compound 0.949 µM, first compound 10 µM) was 85.8% and the viability, T/C [10] was 91.9%. For the same compound, the viability, T/C [11] was 110%, the viability, T/C (second compound 3 µM, first compound 0.316 µM) was 117% and the viability, T/C (second compound 3 µM, first compound 1 µM) was 119%. For the same compound, the viability, T/C (second compound 3 µM, first compound 3.16 µM) was 100%, the viability, T/C (second compound 3 µM, first compound 10 µM) was 73.8% and the viability, T/C [12] was 84.2%. For the same compound, the viability, T/C [13] was 97.4%, the viability, T/C (second compound 9.49 µM, first compound 0.316 µM) was 118% and the viability, T/C (second compound 9.49 µM, first compound 1 µM) was 119%. The viability, T/C (second compound 9.49 µM, first compound 3.16 µM) was 94.8%, the viability, T/C (second compound 9.49 µM, first compound 10 µM) was 65% and the viability, T/C [14] was 87.9%. It also gave a viability, T/C [15] of 83.5%, a viability, T/C (second compound 30 µM, first compound 0.316 µM) of 95.5% and a viability, T/C (second compound 30 µM, first compound 1 µM) of 83.8%. It also gave a viability, T/C (second compound 30 µM, first compound 3.16 µM) of 73.2% and a viability, T/C (second compound 30 µM, first compound 10 µM) of 68.6%.

With `COC1CC2CCC(C)C(O)(O2)C(=O)C(=O)N2CCCCC2C(=O)OC(C(C)CC2CCC(OCCO)C(OC)C2)CC(=O)C(C)C=C(C)C(O)C(OC)C(=O)C(C)CC(C)C=CC=CC=C1C` (stereo not given) + CC(C)NCC(C(=O)N1CCN(c2ncnc3c2C(C)CC3O)CC1)c1ccc(Cl)cc1 the IC50 [1] was over 0.1 µM, the IC50 [2] was over 0.1 µM and the IC50 [3] was over 0.1 µM. The IC50 [4] was over 0.1 µM, the IC50 [5] was over 0.1 µM and the viability, T/C (second compound 0.3 µM, first compound 0.000316 µM) was 98.5%. For the same compound, the viability, T/C (second compound 0.3 µM, first compound 0.001 µM) was 93%, the viability, T/C (second compound 0.3 µM, first compound 0.00316 µM) was 97% and the viability, T/C (second compound 0.3 µM, first compound 0.01 µM) was 96.4%. The viability, T/C [6] was 102%, the viability, T/C [7] was 81.1% and the viability, T/C (second compound 0.949 µM, first compound 0.000316 µM) was 95.8%. It also gave a viability, T/C (second compound 0.949 µM, first compound 0.001 µM) of 89.6%, a viability, T/C (second compound 0.949 µM, first compound 0.00316 µM) of 99.1% and a viability, T/C (second compound 0.949 µM, first compound 0.01 µM) of 102%. The viability, T/C [8] was 91.3%, the viability, T/C [9] was 78% and the viability, T/C (second compound 3 µM, first compound 0.000316 µM) was 96.5%. The viability, T/C (second compound 3 µM, first compound 0.001 µM) was 78.3%, the viability, T/C (second compound 3 µM, first compound 0.00316 µM) was 85.8% and the viability, T/C (second compound 3 µM, first compound 0.01 µM) was 89.1%. For the same compound, the viability, T/C [10] was 73.7%, the viability, T/C [11] was 63.3% and the viability, T/C (second compound 9.49 µM, first compound 0.000316 µM) was 86.2%. For the same compound, the viability, T/C (second compound 9.49 µM, first compound 0.001 µM) was 67.7%, the viability, T/C (second compound 9.49 µM, first compound 0.00316 µM) was 65% and the viability, T/C (second compound 9.49 µM, first compound 0.01 µM) was 74.8%. It also gave a viability, T/C [12] of 76.8%, a viability, T/C [13] of 58.4% and a viability, T/C (second compound 30 µM, first compound 0.000316 µM) of 81.8%. The viability, T/C (second compound 30 µM, first compound 0.001 µM) was 59.6%, the viability, T/C (second compound 30 µM, first compound 0.00316 µM) was 55.9% and the viability, T/C (second compound 30 µM, first compound 0.01 µM) was 62.8%. For the same compound, the viability, T/C [14] was 56% and the viability, T/C [15] was 48.4%.
